In PMC4947982 (Journal of Medicinal Chemistry, 2016):

Conditions: 5 mM DMSO-solutions

CC(C)(C)c1ccc(-c2cn(-c3cc(C(=O)O)cc(-c4ccc(C5CCNCC5)cc4)c3)nn2)cc1 [Compound 79, 5-(4-(4-(tert-Butyl)phenyl)-1H-1,2,3-triazol-1-yl)-4′-(piperidin-4-yl)-[1,1′-biphenyl]-3-carboxylic Acid]
solubility in DMSO: low solubility

CCCCCOc1ccc(-c2cn(-c3cc(C(=O)O)cc(-c4ccc(C5CCNCC5)cc4)c3)nn2)cc1 [Compound 82, 5-(4-(4-(Pentyloxy)phenyl)-1H-1,2,3-triazol-1-yl)-4′-(piperidin-4-yl)-[1,1′-biphenyl]-3-carboxylic Acid]
solubility in DMSO: low solubility

COc1ccc(-c2cn(-c3cc(C(=O)O)cc(-c4ccc(C5CCNCC5)cc4)c3)nn2)cc1OC [Compound 95, 5-(4-(3,4-Dimethoxyphenyl)-1H-1,2,3-triazol-1-yl)-4′-(piperidin-4-yl)-[1,1′-biphenyl]-3-carboxylic Acid]
solubility in DMSO: low solubility

O=C(O)c1cc(-c2ccc(C3CCNCC3)cc2)cc(-n2cc(-c3cc4ccccc4o3)nn2)c1 [Compound 101, 5-(4-(Benzofuran-2-yl)-1H-1,2,3-triazol-1-yl)-4′-(piperidin-4-yl)-[1,1′-biphenyl]-3-carboxylic Acid]
solubility in DMSO: low solubility
